# Measurements reported in paper PMC6154534, “New Benzimidazole-1,2,4-Triazole Hybrid Compounds: Synthesis, Anticandidal Activity and Cytotoxicity Evaluation” (Molecules : A Journal of Synthetic Chemistry and Natural …, 2017).
# Columns and labels:
# Type in all cases: cell-based
# [1] = test system: NIH/3T3 mouse embryonic fibroblast cell line (ATCC CRL1658); experiment: MTT cytotoxicity assay; conditions: NIH3T3, tested 800 to 0.78 µg/mL, read-out: IC50 on NIH/3T3 mouse embryonic fibroblast cell lines
# Source text: Toxicity is a key cause of failure at all steps of the new drug development process. The most part of safety-related problems occur at preclinical phases to predict preclinical safety liabilities earlier in the new drug development process. This approach allows to design and/or selection of better drug candidates that have more potentials to be marketed drugs. […] Cytotoxicities of selected compounds (5m, 5o, 5r, 5w, 5y, 5ab, and 5ad), displaying strong anticandidal activity and good predicted pharmacokinetics, were determined against NIH/3T3 mouse embryonic fibroblast cell lines (ATCC CRL1658).
# Cytotoxicity was tested using the NIH/3T3 mouse embryonic fibroblast cell line (ATCC® CRL-1658™, London, UK). NIH/3T3 cells were incubated according to the supplier’s recommendations and they were seeded at 1 × 10^4 cells into each well of 96-well plates. MTT assay was performed as previously described. The compounds were tested in a concentration range of 800 µg/mL and 0.78 µg/mL concentrations. Percent inhibition was calculated for each concentration according to the formula below, and IC50 values were determined by plotting a concentration–response curve of inhibition percent versus compound concentrations tested.
# [2] = test system: Candida species; experiment: Anticandidal broth microdilution, results summarised over all strains; conditions: summary over all four Candida strains
# Experimental: Synthesized compounds (5a-5ad) were evaluated for anticandidal activity against C. albicans (ATCC 24433), C. krusei (ATCC 6258), C. parapsilosis (ATCC 22019) and C. [NT] 90030). MIC50 values were evaluated via fluorometric measurements, using resazurin solution [56, 57]. […] [NT] 90030). MIC readings were carried out twice for each chemical agent. The yeasts were maintained in RPMI after overnight incubation at 37 °C. The inocula of test microorganisms adjusted to match the turbidity of a MacFarland 0.5 standard tube as determined with a spectrophotometer and the final inoculum size was 0.5-2.5 × 10^5 cfu/mL for antifungal assay. Testing was carried out in RPMI at pH = 7 and the two-fold serial dilutions technique was applied. The last well on the microplates containing only inoculated broth was kept as controls and the last well with no growth of microorganism was recorded to represent the MIC50 expressed in μg/mL. For the antifungal assays, the compounds were dissolved in DMSO. […] The completed plates were incubated for 24 h. At the end of the incubation, resazurin (20 μg/mL) was added into each well to control whether the growth in wells. Then, plates were allowed to incubate for 2 h. MIC50 values were determined using a microplate reader at […].
# [3] = test system: C. parapsilosis (ATCC 22019); experiment: Anticandidal broth microdilution (EUCAST EDef 7.1), resazurin fluorometric readout; conditions: Lodderomyces parapsilosis, ATCC22019; ATCC 22019, RPMI pH 7, 24 h incubation; read-out: MIC50 C. parapsilopsis
# How it was run: (§1)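 EUCAST two-fold serial dilution in RPMI pH 7, inoculum 0.5-2.5 × 10^5 cfu/mL, DMSO-dissolved compounds, 24 h incubation. Resazurin (20 μg/mL) then added for 2 h, fluorescence read at […]; MIC50 in μg/mL, read twice per agent.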
# [4] = test system: C. glabrata (ATCC 90030); experiment: as above; conditions: Nakaseomyces glabratus, ATCC90030; ATCC 90030, RPMI pH 7, 24 h incubation
# How it was run: as §1
# [5] = test system: C. albicans (ATCC 24433); experiment: as above; conditions: Candida albicans, ATCC24433; ATCC 24433, RPMI pH 7, 24 h incubation
# How it was run: as §1
# [6] = test system: C. krusei (ATCC 6258); experiment: as above; conditions: Pichia kudriavzevii, ATCC6258; ATCC 6258, RPMI pH 7, 24 h incubation
# How it was run: as §1
# [7] = test system: ergosterol biosynthesis in C. albicans (ATCC 24433); experiment: Quantification of ergosterol level by LC-MS-MS; conditions: 0.78, 1.56 and 3.12 µg/mL, 16 h, negative control = 100%
# Source text: The most of therapies, planned to treat fungal infections, target in the ergosterol biosynthesis pathway or its end product, ergosterol, a membrane sterol that is unique to fungi. It is the main sterol, and thus is essential for growth and normal membrane function of fungal cell. Besides serving as a bioregulator of membrane fluidity, asymmetry and integrity, it contributes to proper function of membrane-bound enzymes. […] Total intracellular sterols were extracted as reported by Breivik and Owades. […] Ergosterol standard (Product No. 45480, Sigma-Aldrich, Darmstadt, Germany) was used for quantification of ergosterol in both inhibitor-free (negative control) and inhibitor including samples. Ergosterol quantity in negative control samples was regarded as 100%. All concentrations were analyzed in quadruplicate, and the results were expressed as mean ± standard deviation (SD) (Figure 2).
# Total intracellular sterols were extracted as reported by Breivik and Owades with slight modifications. […] The cultures were incubated for 16 h with shaking at 35 °C. […] Ergosterol quantity in negative control samples was regarded as 100%. All concentrations were analyzed in quadruplicate, and the results were expressed as mean ± standard deviation (SD).
# [8] = test system: C. albicans; experiment: Fluorescence microscopy (Live/Dead BacLight, SYTO-9 / PI); conditions: 3.12 µg/mL (4 × MIC50), 2 h
# Source text: Ergosterol is the major fungal membrane sterol that regulates membrane fluidity, plasma membrane biogenesis and functions. […] It is known that propidium iodide (PI) enters only cells with damaged membranes, while SYTO-9 marks cells with both damaged and unaffected membranes. […] Consequently, fluorescence microscopic experiments supported the findings observed in inhibition of biosynthesis of ergosterol, which is a vital sterol regulating membrane functions. The Live/Dead BacLight viability kit from Molecular Probes, Inc. (Eugene, OR, USA) was used as reported by Nobman et al.. In this assay, the SYTO-9 and PI stains are in competition to bind to fungal nucleic acid. PI enters only cells with damaged membranes, while SYTO-9 marks cells with both damaged and unaffected membranes. A culture of C. albicans was grownup to mid-log phase in 20 mL of SDB. Twenty milliliters of the yeast culture was divided into two equal parts. […] The second culture was incubated under same conditions without a compound. Both cultures were centrifuged at 3000 rpm for 10 min. and then cell pellets were incubated with PI and SYTO9 at 40 °C for 30 min. The stained yeast cultures were observed under a fluorescence microscope (Carl-Zeis, Axio Scope.A1, Göttingen, Germany) using 100× oil-immersion objective.
compound,measurement,setting,value
"Cn1c(SCC(=O)c2ccc(F)cc2)nnc1-c1ccc(-c2nc3ccc(F)cc3[nH]2)cc1 [Compound 5w, 2-((5-(4-(6-Fluoro-1H-benzimidazol-2-yl)phenyl)-4-methyl-4H-1,2,4-triazol-3-yl)thio)-1-(4-fluorophenyl)ethan-1-one]",IC50,[1],65.3 ± 2.94 µg/mL
same,MIC50,"[2]; Candida, read-out: MIC50 against Candida species",0.78 µg/mL
same,MIC50 against Candida species,[2],0.78 to 1.56 µg/mL
same,MIC50,[3],0.78 µg/mL
same,MIC50,[4],0.78 µg/mL
same,MIC50,[5],0.78 µg/mL
same,MIC50,[6],0.78 µg/mL
same,level of ergosterol in C. albicans (in words),[7],significantly decreased the level of ergosterol at all tested concentrations
same,effect on C. albicans cell membrane (PI penetration),[8],membrane damaging effect
